Where “and” joins values, the source holds several entries; their conditions need not be identical. Equal entries are not always repeated.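 Compound exposure: 48 hours, 5 concentrations, 96-well plates. At the GI50, growth is halved. TGI marks complete inhibition of growth.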
Key:
Experiment in all cases: inhibition of tumour cell growth, NCI panel, 48 h
TK-10 renal = system: TK-10 renal
A549 NSCLC = system: A549 NSCLC
M14 melanoma = system: M14 melanoma
A498 renal = system: A498 renal
MOLT-4 leukemia = system: MOLT-4 leukemia
MCF7 breast = system: MCF7 breast
OVCAR-5 ovarian = system: OVCAR-5 ovarian
K-562 leukemia = system: K-562 leukemia
CCRF-CEM leukemia = system: CCRF-CEM leukemia
NCI-H460 lung = system: NCI-H460 lung

Structure (SMILES) | GI50 (TK-10 renal) | TGI (TK-10 renal) | GI50 (A549 NSCLC) | TGI (A549 NSCLC) | GI50 (M14 melanoma) | TGI (M14 melanoma) | GI50 (A498 renal) | TGI (A498 renal) | GI50 (MOLT-4 leukemia) | TGI (MOLT-4 leukemia) | GI50 (MCF7 breast) | TGI (MCF7 breast) | GI50 (OVCAR-5 ovarian) | TGI (OVCAR-5 ovarian) | GI50 (K-562 leukemia) | TGI (K-562 leukemia) | GI50 (CCRF-CEM leukemia) | TGI (CCRF-CEM leukemia) | GI50 (NCI-H460 lung) | TGI (NCI-H460 lung)
Cc1cn2c(/C=C3/C(=O)N(C)c4ccccc43)c(C)nc2s1 | 21.5 µM | > 100 µM | 12.8 µM | > 100 µM | 5310 nM | > 100 µM | 11.9 µM | 79.5 µM | 4840 nM | 26.8 µM | 1020 nM | 13.3 µM | 28.6 µM | > 100 µM | 2230 nM | 7.15 µM | 14500 nM | > 100 µM | 4060 nM | 29.6 µM
CC(C)c1ccc(C(=O)Nc2sc3c(c2C(N)=O)CCC(=O)C3)cc1 | 1.29 µM | 3.81 µM | 1.96 µM | 13.2 µM | 522 nM | 2.44 µM | 2.33 µM | 8.52 µM | 461 nM | 3.17 µM | 466 nM | 5.16 µM | 1.16 µM | 3.08 µM | 207 nM | 3.83 µM | 215 nM | 4.27 µM | 849 nM | 3.73 µM
Cc1cc(C)c(C(=O)CC(=O)c2cccnc2)c(C)c1 | 9.77 µM | > 100 µM | 6.97 µM | > 100 µM | 5310 nM | 33.9 µM | 18.8 µM | 94.1 µM | 4410 nM | 38.4 µM | 5960 nM | > 100 µM | 9.84 µM | > 100 µM | 3710 nM | > 100 µM | 4100 nM | 45.8 µM | 3390 nM | 82.9 µM
COc1ccc2c(c1)C=C([N+](=O)[O-])C(C1OC(C)(C)OC1C1COC(C)(C)O1)O2 (configuration not stated) | – | 32.4 µM | – | 41.9 µM | – | 6.15 µM | – | 33.3 µM | – | 6.51 µM | – | 9.12 µM | – | 20.7 µM | – | 4.88 µM | – | 4.2 µM | – | 13.6 µM
CCC1(O)C(=O)OCc2c1cc1n(c2=O)Cc2cc3ccc(C=O)cc3nc2-1 (configuration not stated) | 20.8 µM | 50 µM and > 100 µM | 7.43 µM | 50 µM and 18.8 µM | 1440 nM | 50 µM and 19.2 µM | 5.39 µM | 13.5 µM and 19.5 µM | 209 nM | 1.78 µM and 1.05 µM | 187 nM | 50 µM and 10.6 µM | 10.5 µM | 50 µM and 55.2 µM | 1390 nM | 50 µM and 66 µM | 52 nM | 0.37 µM and 1.14 µM | 301 nM | 6.59 µM and 26.4 µM
COc1ccc(OC)c(/C=C/C(=O)N/N=C/c2ccc(Cl)cc2)c1 | 0.383 µM | > 100 µM | 0.242 µM | > 100 µM | 63.3 nM | > 25.9 µM | 0.111 µM | 36.6 µM | 213 nM | > 100 µM | 52.9 nM | > 57 µM | 15.3 µM | > 100 µM | 42 nM | > 100 µM | 141 nM | > 100 µM | 70.4 nM | > 37.1 µM
CC(=O)OC1Oc2ccccc2-c2oc(=O)c(-c3cc4ccc(N(C)C)cc4oc3=O)cc21 (configuration not stated) | 5.4 µM | 19.5 µM | 12.5 µM | 36.9 µM | 17900 nM | 66.1 µM | 6.91 µM | 26.5 µM | 2530 nM | 18.1 µM | 10200 nM | 29.8 µM | 13.2 µM | 30.8 µM | 2980 nM | > 100 µM | 2890 nM | 24.2 µM | 11800 nM | 33.1 µM
CCCCN=C(N)c1ccc(OCCSCCOc2ccc(C(N)=NCCCC)cc2)cc1 | 66.6 µM | > 100 µM | 4.47 µM | > 100 µM | 28400 nM | > 100 µM | 15.2 µM | > 100 µM | 20900 nM | > 100 µM | 3340 nM | > 100 µM | 46.1 µM | > 100 µM | 2300 nM | > 100 µM | 20700 nM | > 100 µM | 3170 nM | > 100 µM
Nc1ncc(-c2cnn(CCO)c2)c2scc(-c3ccc(NC(=O)Nc4cccc(F)c4)cc3)c12 | 0.394 µM | 3.43 µM | 0.125 µM | 1.5 µM | 193 nM | 3.31 µM | 0.122 µM | 0.663 µM | < 22.6 nM | 2.34 µM | 226 nM | 3.7 µM | 0.375 µM | 3 µM | 39.9 nM | 15.1 µM | < 10 nM | 5.01 µM | < 35.5 nM | 4.21 µM
CCc1[nH]c(=O)nc(N)c1-c1ccc(N2CCCCC2)c([N+](=O)[O-])c1 | – | > 100 µM | – | > 100 µM | – | > 100 µM | – | > 100 µM | – | > 100 µM | – | > 100 µM | – | > 100 µM | – | > 100 µM | – | > 100 µM | – | > 100 µM
COc1cc(OC)c(/C=C/C(=O)c2c(OC)cccc2OC)c(OC)c1 | 5.03 µM | > 100 µM | 0.907 µM | > 100 µM | 441 nM | 2.63 µM | 0.308 µM | – | 1170 nM | > 100 µM | 392 nM | > 100 µM | 2.17 µM | > 100 µM | 444 nM | > 100 µM | 1230 nM | > 100 µM | 393 nM | > 20.3 µM
CN(C)CCCn1c2c(c3ccccc3c1=O)C(=O)c1ccccc1-2 | 1.67 µM | 11.3 µM | 0.65 µM | 3.14 µM | 3660 nM | 17.1 µM | 5.99 µM | 22.1 µM | 276 nM | 0.746 µM | 554 nM | 12.2 µM | 3.06 µM | 14 µM | 1900 nM | 8.01 µM | 1440 nM | 28.9 µM | 520 nM | 10.5 µM
COc1ccc(C(=O)COc2cccc(/C=C3\COc4ccc5ccccc5c4C3=O)c2)cc1 | 24.2 µM | > 100 µM | > 100 µM | > 100 µM | 67800 nM | > 100 µM | 12.2 µM | 87 µM | 2860 nM | 18.9 µM | 2480 nM | > 100 µM | 12.9 µM | > 100 µM | 3630 nM | 66.7 µM | 1920 nM | 6.26 µM | 6440 nM | > 100 µM
O=C(c1cccc(O)c1O)c1cn(Cc2ccc(F)cc2)c2cccc(O)c12 | 7.01 µM | 26.8 µM | 3.31 µM | 16.7 µM | 3430 nM | 13.4 µM | 12.9 µM | 25.6 µM | 840 nM | 10.3 µM | 2140 nM | 13.1 µM | 9.04 µM | 26.4 µM | 3560 nM | > 37.7 µM | 861 nM | 6.44 µM | 2010 nM | 11 µM
NC(=S)N/N=C/c1ccc(OC(=O)COc2ccc(Cl)cc2)cn1 | 30 µM | > 100 µM | 34.5 µM | > 100 µM | 3510 nM | 15.6 µM | 11.9 µM | 71 µM | 2260 nM | > 100 µM | 3710 nM | > 100 µM | 41.6 µM | > 100 µM | 1360 nM | > 100 µM | 2730 nM | > 100 µM | 3910 nM | 18.9 µM
COc1cc2oc(-c3ccc(O)cc3)cc(=O)c2c(OC)c1OC | – | > 100 µM | – | > 100 µM | – | > 100 µM | – | > 100 µM | – | > 100 µM | – | > 100 µM | – | > 100 µM | – | > 100 µM | – | > 100 µM | – | > 100 µM
CCOC(=O)Sc1ncnc2nc[nH]c12 | 0.547 µM | > 100 µM | 25.9 µM | > 100 µM | 408 nM | > 100 µM | 14.4 µM | > 100 µM | 1580 nM | 6.57 µM | 616 nM | > 100 µM | 4.49 µM | > 100 µM | 312 nM | > 100 µM | 629 nM | 13.4 µM | 5750 nM | > 100 µM
CN/N=C(/CCN1CCCC1)CC(c1ccccc1)c1c(O)c2ccccc2oc1=O (configuration not stated) | – | > 100 µM | – | > 100 µM | – | > 100 µM | – | > 100 µM | – | > 100 µM | – | > 100 µM | – | > 100 µM | – | > 100 µM | – | > 100 µM | – | > 100 µM
CCN(CC)c1sc(N(CC)CC)c2c1SSSSS2 | 0.765 µM | 1.88 µM | 1.84 µM | 3.64 µM | 1450 nM | 3.23 µM | 2.03 µM | 3.54 µM | 343 nM | > 100 µM | 1080 nM | – | 1.52 µM | 3.2 µM | 1640 nM | > 100 µM | 359 nM | 1.24 µM | 2480 nM | 6.02 µM
COC(=O)Nc1nc2ccc(Oc3ccc(NC(=O)Nc4ccccc4)cc3)cc2[nH]1 | 0.787 µM | 9.74 µM | 0.533 µM | 5.32 µM | 168 nM | 2.6 µM | 0.141 µM | 4.97 µM | 184 nM | > 10.3 µM | 93.2 nM | – | 1.06 µM | > 14.4 µM | 105 nM | > 9.63 µM | 123 nM | > 8.59 µM | 129 nM | 2.71 µM

Source: PubChem BioAssay (NCI)
